Experimental data reported in article PMC5065612, “A small molecule inhibitor of mutant IDH2 rescues cardiomyopathy in a D-2-hydroxyglutaric aciduria type II mouse model” (Journal of Inherited Metabolic Disease, 2016).

Columns and labels:
[1] = molecular target: T1, IDH2R140Q (isocitrate dehydrogenase 2) (Homo sapiens, UniProt P48735, R140Q); assay: NADPH depletion end-point assay (diaphorase/resazurin), […] h preincubation, recombinant enzyme; format: biochemical
T1 construct: gene IDH2; IDH2R140Q homodimer, recombinant purified enzyme
T1 sequence (P48735 40-452 R140Q): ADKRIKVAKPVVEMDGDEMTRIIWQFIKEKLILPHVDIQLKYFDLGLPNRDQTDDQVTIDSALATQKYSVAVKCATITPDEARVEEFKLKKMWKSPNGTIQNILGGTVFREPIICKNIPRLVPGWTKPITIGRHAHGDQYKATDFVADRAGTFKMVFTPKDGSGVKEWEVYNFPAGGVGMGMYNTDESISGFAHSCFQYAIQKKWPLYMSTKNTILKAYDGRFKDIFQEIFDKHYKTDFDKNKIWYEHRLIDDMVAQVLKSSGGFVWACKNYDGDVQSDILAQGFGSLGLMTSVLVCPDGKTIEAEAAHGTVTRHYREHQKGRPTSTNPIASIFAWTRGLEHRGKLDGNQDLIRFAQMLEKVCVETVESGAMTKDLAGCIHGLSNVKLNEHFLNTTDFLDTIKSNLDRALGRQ

[2] = molecular target: T2, Idh2R140Q (mouse isocitrate dehydrogenase 2) (Mus musculus, UniProt P54071, R140Q); assay: 2HG production in culture medium of knock-in ES cells, LC-MS; format: cell-based
T2 construct: gene Idh2; Idh2R140Q knock-in mouse embryonic stem cells
T2 sequence (P54071 40-452 R140Q): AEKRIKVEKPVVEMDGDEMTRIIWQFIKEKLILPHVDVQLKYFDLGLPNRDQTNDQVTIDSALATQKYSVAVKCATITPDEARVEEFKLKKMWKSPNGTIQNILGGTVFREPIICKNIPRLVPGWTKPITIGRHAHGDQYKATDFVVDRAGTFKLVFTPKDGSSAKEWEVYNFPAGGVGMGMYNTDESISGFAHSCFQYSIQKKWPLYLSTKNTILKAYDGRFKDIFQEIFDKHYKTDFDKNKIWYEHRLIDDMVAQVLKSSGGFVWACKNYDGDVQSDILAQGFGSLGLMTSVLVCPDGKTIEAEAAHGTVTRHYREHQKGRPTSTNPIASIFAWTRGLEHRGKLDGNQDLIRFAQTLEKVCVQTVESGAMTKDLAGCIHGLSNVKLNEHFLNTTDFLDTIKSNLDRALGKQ

`CC(C)Nc1nc(Nc2ccnc(C(F)(F)F)c2)nc(-c2cccc(C(F)(F)F)n2)n1` [AGI-026] showed an IC50 [1] of 4 ± 0.2 nM and an IC50 [2] of 5.4 ± 2.8 nM.
